These results are taken from PubChem BioAssay AID1259407 (Chemical Carcinogenesis Research Information System (CCRIS), 2018).

Each structure is given as a SMILES string. Activity calls are given as the source filed them. How the calls were made is not given here.

This data set deals with CCRIS mutagenicity, Ames/micronucleus/aberration tests. The experiment in a line: CCRIS mutagenicity studies.
Where [1] appears, read: Test System: AMES SALMONELLA TYPHIMURIUM, Strain/Indicator: TA98, Metabolic Activation: HAMSTER, LIVER, S-9, AROCLOR 1254 (10%), Method: PREINCUBATION
Where [2] appears, read: Test System: AMES SALMONELLA TYPHIMURIUM, Strain/Indicator: TA98, Metabolic Activation: NONE, Method: PREINCUBATION
Where [3] appears, read: Test System: AMES SALMONELLA TYPHIMURIUM, Strain/Indicator: TA98, Metabolic Activation: RAT, LIVER, S-9, AROCLOR 1254 (10%), Method: PREINCUBATION
The mark [4] stands for this setting: Test System: AMES SALMONELLA TYPHIMURIUM, Strain/Indicator: TA100, Metabolic Activation: HAMSTER, LIVER, S-9, AROCLOR 1254 (10%), Method: PREINCUBATION
The mark [5] stands for this setting: Test System: AMES SALMONELLA TYPHIMURIUM, Strain/Indicator: TA100, Metabolic Activation: NONE, Method: PREINCUBATION
Where [6] appears, read: Test System: AMES SALMONELLA TYPHIMURIUM, Strain/Indicator: TA100, Metabolic Activation: RAT, LIVER, S-9, AROCLOR 1254 (10%), Method: PREINCUBATION
Where [7] appears, read: Test System: AMES SALMONELLA TYPHIMURIUM, Strain/Indicator: TA1535, Metabolic Activation: NONE, Method: PREINCUBATION
[8] abbreviates: Test System: AMES SALMONELLA TYPHIMURIUM, Strain/Indicator: TA1535, Metabolic Activation: RAT, LIVER, S-9, AROCLOR 1254 (10%), Method: PREINCUBATION
[9] abbreviates: Test System: AMES SALMONELLA TYPHIMURIUM, Strain/Indicator: TA1537, Metabolic Activation: NONE, Method: PREINCUBATION
[10] abbreviates: Test System: AMES SALMONELLA TYPHIMURIUM, Strain/Indicator: TA1537, Metabolic Activation: RAT, LIVER, S-9, AROCLOR 1254 (10%), Method: PREINCUBATION
Setting [11] is: Test System: AMES SALMONELLA TYPHIMURIUM, Strain/Indicator: TA98, Metabolic Activation: NONE, Method: STANDARD PLATE.
The mark [12] stands for this setting: Test System: AMES SALMONELLA TYPHIMURIUM, Strain/Indicator: TA100, Metabolic Activation: NONE, Method: STANDARD PLATE.
The mark [13] stands for this setting: Test System: AMES SALMONELLA TYPHIMURIUM, Strain/Indicator: TA100, Metabolic Activation: RAT, LIVER, S-9, AROCLOR 1254, Method: STANDARD PLATE.
[14] abbreviates: Test System: AMES SALMONELLA TYPHIMURIUM, Strain/Indicator: TA1535, Metabolic Activation: NONE, Method: STANDARD PLATE.
Setting [15] is: Test System: AMES SALMONELLA TYPHIMURIUM, Strain/Indicator: TA1537, Metabolic Activation: NONE, Method: STANDARD PLATE.
[16] abbreviates: Test System: AMES SALMONELLA TYPHIMURIUM, Strain/Indicator: TA1538, Metabolic Activation: NONE, Method: STANDARD PLATE.

Take `C[CH2][Hg][S]c1ccccc1C(=O)O`: the mutagenic call is “active; positive” (End Point: IN VITRO MICRONUCLEUS, Test System: HAMSTER V79 CELLS, Metabolic Activation: NONE); “inactive; negative” under setting [1]; “inactive; negative” under setting [2]; “inactive; negative” under setting [3]; “inactive; negative” under setting [4]; “inactive; negative” under setting [5]. Besides, the mutagenic call by setting is: under setting [6], “inactive; negative”; (Test System: AMES SALMONELLA TYPHIMURIUM, Strain/Indicator: TA1535, Metabolic Activation: HAMSTER, LIVER, S-9, AROCLOR 1254 (10%), Method: PREINCUBATION) “inactive; negative”; under setting [7], “inactive; negative”; under setting [8], “inactive; negative”; (Test System: AMES SALMONELLA TYPHIMURIUM, Strain/Indicator: TA1537, Metabolic Activation: HAMSTER, LIVER, S-9, AROCLOR 1254 (10%), Method: PREINCUBATION) “inactive; negative”; under setting [9], “inactive; negative”. For the same compound, under setting [10], the mutagenic call is “inactive; negative”.
As for `C=C(C)C(=O)OCCOCCOC(=O)C(=C)C`, the mutagenic call under setting [11] was “inactive; negative”; the mutagenic call (Test System: AMES SALMONELLA TYPHIMURIUM, Strain/Indicator: TA98, Metabolic Activation: RAT, LIVER, S-9, AROCLOR 1254, Method: STANDARD PLATE) was “inactive; negative”; the mutagenic call (Test System: AMES SALMONELLA TYPHIMURIUM, Strain/Indicator: TA98, Metabolic Activation: RAT, LIVER, S-9, SODIUM PHENOBARBITAL, Method: STANDARD PLATE) is “inactive; negative”; the mutagenic call under setting [12] is “inactive; negative”; the mutagenic call under setting [13] was “inactive; negative”; the mutagenic call (Test System: AMES SALMONELLA TYPHIMURIUM, Strain/Indicator: TA100, Metabolic Activation: RAT, LIVER, S-9, SODIUM PHENOBARBITAL, Method: STANDARD PLATE) was “inactive; negative”. The mutagenic call was “inactive; negative” under setting [14]; “inactive; negative” (Test System: AMES SALMONELLA TYPHIMURIUM, Strain/Indicator: TA1535, Metabolic Activation: RAT, LIVER, S-9, AROCLOR 1254, Method: STANDARD PLATE); “inactive; negative” (Test System: AMES SALMONELLA TYPHIMURIUM, Strain/Indicator: TA1535, Metabolic Activation: RAT, LIVER, S-9, SODIUM PHENOBARBITAL, Method: STANDARD PLATE); “inactive; negative” under setting [15]; “inactive; negative” (Test System: AMES SALMONELLA TYPHIMURIUM, Strain/Indicator: TA1537, Metabolic Activation: RAT, LIVER, S-9, AROCLOR 1254, Method: STANDARD PLATE); “inactive; negative” (Test System: AMES SALMONELLA TYPHIMURIUM, Strain/Indicator: TA1537, Metabolic Activation: RAT, LIVER, S-9, SODIUM PHENOBARBITAL, Method: STANDARD PLATE). Also, the mutagenic call was “inactive; negative” under setting [16]; “inactive; negative” (Test System: AMES SALMONELLA TYPHIMURIUM, Strain/Indicator: TA1538, Metabolic Activation: RAT, LIVER, S-9, AROCLOR 1254, Method: STANDARD PLATE); “inactive; negative” (Test System: AMES SALMONELLA TYPHIMURIUM, Strain/Indicator: TA1538, Metabolic Activation: RAT, LIVER, S-9, SODIUM PHENOBARBITAL, Method: STANDARD PLATE).
Regarding `N=C1C=CC2=C(S(=O)(=O)O)C=CC(=O)C2=C1NNc1ccc(-c2ccc(NNC3=C4C(=O)C=CC(S(=O)(=O)O)=C4C=CC3=N)cc2)cc1`, the mutagenic call (Test System: AMES SALMONELLA TYPHIMURIUM, Strain/Indicator: TA98, Metabolic Activation: HAMSTER, LIVER, S-9, Method: PREINCUBATION (PRIVAL METHOD)) is “active; positive”.
With `O=P(Oc1ccccc1)(Oc1ccccc1)Oc1ccccc1`, the mutagenic call was “inactive; negative” under setting [1]; “inactive; negative” under setting [2]; “inactive; negative” under setting [3]; “inactive; negative” under setting [4]; “inactive; negative” under setting [5]; “inactive; negative” under setting [6]. The mutagenic call by setting is: (Test System: AMES SALMONELLA TYPHIMURIUM, Strain/Indicator: TA1535, Metabolic Activation: HAMSTER, LIVER, S-9, AROCLOR 1254 (10 OR 50%), Method: PREINCUBATION) “inactive; negative”; under setting [7], “inactive; negative”; under setting [8], “inactive; negative”; (Test System: AMES SALMONELLA TYPHIMURIUM, Strain/Indicator: TA1537, Metabolic Activation: HAMSTER, LIVER, S-9, AROCLOR 1254 (10 OR 50%), Method: PREINCUBATION) “inactive; negative”; under setting [9], “inactive; negative”; under setting [10], “inactive; negative”.
Turning to `CCN(C)C(=O)Oc1ccc2c(c1)C1(C)CCN(C)C1N2C` (stereo unspecified), the mutagenic call (Test System: AMES SALMONELLA TYPHIMURIUM, Strain/Indicator: TA97, Metabolic Activation: NONE, Method: STANDARD PLATE) was “inactive; negative”; the mutagenic call (Test System: AMES SALMONELLA TYPHIMURIUM, Strain/Indicator: TA97, Metabolic Activation: S-9, Method: STANDARD PLATE) was “inactive; negative”; the mutagenic call under setting [11] was “inactive; negative”; the mutagenic call (Test System: AMES SALMONELLA TYPHIMURIUM, Strain/Indicator: TA98, Metabolic Activation: S-9, Method: STANDARD PLATE) is “inactive; negative”; the mutagenic call under setting [12] was “inactive; negative”; the mutagenic call (Test System: AMES SALMONELLA TYPHIMURIUM, Strain/Indicator: TA100, Metabolic Activation: S-9, Method: STANDARD PLATE) is “inactive; negative”. The mutagenic call (Test System: AMES SALMONELLA TYPHIMURIUM, Strain/Indicator: TA104, Metabolic Activation: NONE, Method: STANDARD PLATE) was “inactive; negative”; the mutagenic call (Test System: AMES SALMONELLA TYPHIMURIUM, Strain/Indicator: TA104, Metabolic Activation: S-9, Method: STANDARD PLATE) was “inactive; negative”; the mutagenic call under setting [14] was “inactive; negative”; the mutagenic call (Test System: AMES SALMONELLA TYPHIMURIUM, Strain/Indicator: TA1535, Metabolic Activation: S-9, Method: STANDARD PLATE) is “inactive; negative”; the mutagenic call under setting [15] is “inactive; negative”; the mutagenic call (Test System: AMES SALMONELLA TYPHIMURIUM, Strain/Indicator: TA1537, Metabolic Activation: S-9, Method: STANDARD PLATE) is “inactive; negative”. Moreover, the mutagenic call reads like this: under setting [16], “inactive; negative”; (Test System: AMES SALMONELLA TYPHIMURIUM, Strain/Indicator: TA1538, Metabolic Activation: S-9, Method: STANDARD PLATE) “inactive; negative”.
`CC1c2ccccc2-c2ccccc21`: the mutagenic call under setting [13] is “active; positive”.
